Experimental data: patent US12012373B2, “Cannabinoid derivatives” (CANOPY GROWTH CORPORATION, priority 2019, dated 2024)

Assays:
human CB2 receptor = target: T1, human CB2 receptor (Homo sapiens, UniProt P34972); assay: CB2 radioligand competitive binding assay ([3H]CP 55,940 displacement)
T1 construct: membranes prepared in house
Method: Compounds of the present disclosure were tested for CB1 receptor binding affinity and for CB2 receptor binding affinity. As used herein, “binding affinity” is represented by the IC50 value, which was experimentally determined as described herein. The lower the IC50 value the higher the binding affinity. A compound of the present disclosure may be said to have “binding selectivity” If it has a higher binding affinity for one receptor compared to the other.
The membranes were prepared from CHO-K1 (Chinese hamster ovary) cells stably transfected with the human CB2 receptor (Cat. #ES-111-C; Perkin Elmer, Boston, MA). The cells were grown adherently and maintained in Ham's F12 medium containing 10% fetal bovine serum (FBS), penicillin, streptomycin and geneticin (G418) at 37° C. in a humid atmosphere of 5% CO2 following the manufacturer's Instructions.
For membrane preparation the cells were washed with PBS and scraped off the plates in cold homogenization buffer (25 mM HEPES (pH 7.4), 2 mM EDTA) containing protease inhibitor cocktail (Sigma Cat. #P8340). The cell suspension was homogenized with a Pro-PK-01200D Polytron Homogenizer (Pro Scientific) and then centrifuged for 30 min at 120,000×g. The supernatant was discarded and the pellet was re-suspended in the homogenization buffer and stored at −80° C. until the time of use.
In this experiment, 3H radiolabeled CP 55,940, i.e. [3H]CP 55,940 (Perkin Elmer, Boston, MA), was used as a radioligand for the CB2 receptor to determine the binding affinity of compounds for the CB2 receptor (Scheme 8; above).
The competition binding experiments (single dose and dose-response) were performed by incubating 0.6 nM of [3H]CP55,940 (specific activity 101 Ci/mmol, Perkin Elmer) and different concentrations of compounds disclosed herein with membranes prepared as above from CHO-K1 cells expressing human CB2 receptor (1 μg of protein/well), 50 mM Tris-HCl (pH 7.4), 5 mM MgCl2, 1 mM CaCl2, and 2 mg/mL BSA.
For the single dose experiments, the compound stocks (usually 10 mM in DMSO) were diluted to working stocks in the binding buffer to give the final compound concentrations of 10 μM and 1 μM. For the dose-response experiments the test compounds were sequentially diluted to provide the desired concentration range for the IC50 determination. In each case the compounds were pre-incubated with the membrane for 20 min, before adding the radioligand.
After incubation with the radioligand for 60 min at 37° C., the incubation was terminated by rapid filtration of assay mixture through MultiScreen®HTS^+ 96-well filter plates (Millipore, Cat. #MSFCNXB), pre-soaked for 60 min with 50 mM Tris-HCl (pH 7.4) containing 0.33% polyethylenimine (PEI). The nonspecific binding (NSB) was determined in the presence of 10 μM unlabeled CP55,940. After drying the filter plate at 50° C. for at least 60 min, the filter-bound radioactivity was determined by scintillation spectrometry using the 1450 MicroBeta Plate Counter (Perkin Elmer, Boston, MA). From the dose-response experiments, the IC50 values were determined (see Table 1, CB2 IC50).

human CB1 receptor [1] = target: T2, human CB1 receptor (Homo sapiens, UniProt P21554); assay: PathHunter β-Arrestin functional assay, CB1 receptor, agonist mode; format: cell-based; set-up: membranes prepared in house
T2 sequence (P21554 whole entry, the tested form may be a part): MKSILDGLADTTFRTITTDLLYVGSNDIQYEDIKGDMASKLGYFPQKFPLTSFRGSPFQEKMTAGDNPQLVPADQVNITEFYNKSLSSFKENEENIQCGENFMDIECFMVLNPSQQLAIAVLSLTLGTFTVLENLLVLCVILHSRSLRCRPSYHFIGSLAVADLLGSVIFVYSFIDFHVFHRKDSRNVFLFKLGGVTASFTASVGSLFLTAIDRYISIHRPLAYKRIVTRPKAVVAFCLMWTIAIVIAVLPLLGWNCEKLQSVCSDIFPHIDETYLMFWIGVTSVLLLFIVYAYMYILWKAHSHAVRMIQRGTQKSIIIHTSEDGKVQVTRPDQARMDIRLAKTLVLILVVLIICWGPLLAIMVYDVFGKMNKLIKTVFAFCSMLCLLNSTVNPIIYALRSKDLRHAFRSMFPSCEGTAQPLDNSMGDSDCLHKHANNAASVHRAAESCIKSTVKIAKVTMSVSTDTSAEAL
Text: In the PathHunter® β-Arrestin system from DiscoveRx (Eurofins, Fremont, CA), a small peptide, the ProLink™ (PK), is fused to the intracellular sequence of a GPCR target, and a complementing peptide, the enzyme acceptor (EA) fragment, is fused to β-arrestin. After binding to its specific ligand, the GPCR target recruits β-arrestin, forcing the complementation of the two β-galactosidase enzyme fragments (EA and PK) to produce a functional β-galactosidase enzyme. The enzyme activity, and thus the amount of ligand bound to the GPCR, is detected with a single addition of a reagent cocktail to lyse the cells and produce a chemiluminescent signal before being analyzed using a traditional plate reader.
PathHunter® CHO-K1 CNR1 β-Arrestin cells (DiscoverRx, cat. Number 93-0959C2) stably expressing CB1 receptor (CB1R) were grown in Ham's F12 medium curtaining 10% fetal bovine serum (FBS), 1% penicillin/streptomycin, 300 μg/mL Hygromycin B and 800 μg/mL geneticin (G418) and maintained in 37° C. incubators at 5% CO2. […]
The incubation was terminated by adding the detection reagent (19 parts of 1% CHAPS, 5 parts Emerald-II and 1 part Galacton-Star), equivalent to 50% of the assay volume to each wells. Plates were incubated for 1 hour in the dark at room temperature, followed by chemiluminescence detection using a microplate reader.
Data were analysed by generating nonlinear regression curves. […]

human CB1 receptor [2] = target: T2, human CB1 receptor; assay: biochemical; format: binding; set-up: membranes prepared in house
human CB1 receptor [3] = target: T2, human CB1 receptor; assay: CB1 receptor AequoScreen functional assay (agonist mode); format: cell-based; set-up: Perkin Elmer (host cells ES-000-A24); host or cells: CHO-K1 aeq/G16 (transient, FuGene)
Text: Aequorin is a photoprotein originating from the jellyfish Aequorea Victoria. The apo-enzyme (apoaequorin) requires a hydrophobic prosthetic group, coelenterazine, to be converted to aequorin, the active form of the enzyme. […] Upon calcium binding, aequorin oxidizes coelenterazine into coelenteramide with the production of CO2 and emission of light. The consumption of aequorin is proportional to the calcium concentration. Therefore, measurement of the light emitted upon oxidation of coelenterazine is a reliable tool for measurement of intracellular calcium flux. […]
FuGene from Promega (Catalog number selected: E2691) was used to transiently transfect CHO-K1 aeq/G16 cells with an expression vector containing the open reading frame (ORF) expression clone for CNR1 (NM_016083.4; bacterial stock; Gencopeia Inc.) at a ratio of 15 ng of plasmid DNA to 480,000 cells. […]
After incubation, the mixture was diluted 3-fold in assay media and kept under constant gentle agitation at room temperature. […] Cells were injected automatically over the serial diluted test compounds and CP55,940 using a liquid dispenser, and the luminescence was recorded over 10-30 seconds in a microplate reader.
Sigmoidal dose-response curves were generated using average Luminescent Counts Per Second (LCPS) which were recorded immediately after cells were mixed with compounds in agonist mode.

T1 sequence (P34972 whole entry): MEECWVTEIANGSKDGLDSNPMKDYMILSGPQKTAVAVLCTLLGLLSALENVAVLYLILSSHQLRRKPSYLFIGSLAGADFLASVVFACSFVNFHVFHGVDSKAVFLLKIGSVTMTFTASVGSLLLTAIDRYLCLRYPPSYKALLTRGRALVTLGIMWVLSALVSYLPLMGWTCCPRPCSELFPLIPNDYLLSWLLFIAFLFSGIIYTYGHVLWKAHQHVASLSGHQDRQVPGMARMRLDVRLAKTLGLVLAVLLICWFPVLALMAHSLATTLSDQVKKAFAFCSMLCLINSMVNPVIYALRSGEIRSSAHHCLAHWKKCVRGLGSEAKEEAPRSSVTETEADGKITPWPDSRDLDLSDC

`CCCCCc1cc(O)c(C2C=C(C)CCC2)c(O)c1S(=O)(=O)N(CC)CC` (stereo not shown) [Compound 62c, N,N-diethyl-2,6-dihydroxy-5′-methyl-4-pentyl-1′,2′,3′,4′-tetrahydro-[1,1′-biphenyl]-3-sulfonamide] was tested, and the IC50 (human CB2 receptor; [3H]CP 55,940 displacement, CHO-K1 membranes expressing human CB2 receptor) was under 100 nM, the “Selectivity CB2” value (human CB2 receptor; fold difference in binding between CB1 and CB2, shown in the column of the receptor with higher affinity, 1.00 in both = about same affinity) was 31.82 fold and the EC50 (human CB1 receptor [1]) was about 499 nM. For the same compound, the “relative efficacy in comparison to CP55,940” value (human CB1 receptor [1]; agonist mode, PathHunter CHO-K1 CNR1 β-Arrestin cells) was “about 56%”, the IC50 (human CB1 receptor [2]) was 100 to 990 nM and the EC50 (human CB1 receptor [3]) was about 502 nM. For the same compound, the “relative efficacy in comparison to CP55,940” value (human CB1 receptor [3]; AequoScreen, agonist mode, CHO-K1 aeq/G16 cells transfected with CNR1) was “about 117%”.
